Results: patent publication US10065951B2, “Small molecule transcription modulators of bromodomains” (Icahn School of Medicine at Mount Sinai, priority 2014, dated 2018)

Experiments:
[1] = test system: oligodendrocyte progenitor cultures; assay: Microarray and qRT-PCR gene expression in oligodendrocyte progenitor cultures; format: cell-based, rat
Method: Raw values were normalized to Gapdh levels and expressed relative to the levels detected in cells kept for 1 day in ODM. A housekeeping gene (act) was used as a control.
Total RNA were isolated from the cells using Trizol® Reagent following manufacturer's instruction and cleaned up using RNeasy Mini kit (Qiagen, Hilden, Germany). 0.5-1 μg of total RNA was used in 20 μl of reverse transcription (RT) reaction, using SuperScript RT-PCR kit (Invitrogen, Carlsbad, Calif.). Quantitative RT-PCR was performed using Applied Biosystems SYBR green PCR master mix in 384-well plate in ABI 7900HT Sequence Detection PCR System. The PCR was performed in a 20 μl reaction mixture containing 0.2 μl cDNA as template and 100 nM specific oligonucleotide primer pairs using program denaturation at 95° C. for 15 s; annealing and extension at 60° C. for 1 min for 40 cycles. Melting curve of each sample was measured to ensure the specificity of the products. Data were normalized to the internal control GAPDH and analyzed using Pfaffl ΔΔCt method.
To determine how 4c exerts the pro-differentiative effect at 10 nM on the lineage progression of oligodendrocyte progenitors when the global histone acetylation is unchanged, a possibility that the compound would primarily affect CBP binding to target genes was investigated. To test this hypothesis, a microarray analysis was performed of cultures either untreated or treated with 10 nM 4c for 1 or 4 days.

[2] = test system: rat primary oligodendrocyte progenitors; assay: Oligodendrocyte progenitor differentiation (immunocytochemistry NG2/O4/MBP, qRT-PCR MOG); format: cell-based; conditions: 10 nM
Method: Early and differentiating progenitors were identified by positive immunoreactivity for the marker NG2 (dark) or O4 (light), respectively. FIG. 6B illustrates the number of NG2+, O4+ and NG2+/O4+ cells quantified in three independent experiments and the total number of oligodendrocyte lineage cells (mean±SD). FIG. 6C illustrates the results of rat primary cells cultured in medium containing 4c (10 nM) for 4 days and then labeled with O4 (light) and with the differentiation marker MBP (dark). FIG. 6D is a bar graph showing the number of MBP+ cells quantified in three independent experiments (mean±SD). FIG. 6E illustrates the qRT-PCR of the transcript levels of the late differentiation marker MOG in treated cells.
Cortex from rat p1 pups were dissected in L-15 medium and collected in NM10 medium (DMEM+10% FBS+2 mM glutamine+1 mM sodium pyruvate+100 U/ml penicillin+100 μg/ml streptomycin). The dissociated cells were plated into 75 cm^2 flasks (1.5 brain per flask) and cultured at 37° C. supplied with 5% CO2 for 7 days with the changing of fresh NM10 medium every other day. At day 8 the flasks were shaken for 16-18 h at 200 rpm and 37° C. and the medium containing the ‘shaken-off’ cells were collected. Oligodendrocyte progenitors (OPCs) were then isolated from the cell suspension by immunoselection using A2B5 antibodies followed by incubation with anti-immunoglobulin magnetic microbeads (50 nm in size and biodegradable) and separation using a high-gradient magnetic field generated by the permanent magnet in the MACS Separator unit (Miltenyi Biotec). The purified OPCs were plated in NM10 medium onto Lab Tek®II 8-well chamber slides (Nalge Nunc Inc.) at a density of 2×10^4 per well for immunocytochemistry, or poly-D-lysine-coated 6-well plates at a density of 2×10^5 per well for RNA isolation. After incubated for 8-16 hr, the medium was changed to ODM (DMEM, 2 mM L-glutamine, 1 mM sodium pyruvate, 10 ng/ml biotin, 100 μg/ml apotransferrin, 100 μM putrescine, 20 nM progesterone, 30 nM sodium selenite, 5 μg/ml insulin, 100 U/ml penicillin, 100 μg/ml streptomycin) supplemented with bFGF (20 ng/ml) and platelet derived growth factor (PDGF; 10 ng/ml), and cultured for additional one day as previously described (He, Y. et al., Neuron 55, 217-30 (2007)). Oligodendrocyte differentiation was induced by culturing the cells in the same medium devoid of mitogens (ODM) with or without compounds at indicated concentrations. […]
Images were captured at 20× objective using LSM 710 Meta confocal laser scanning microscope (Carl Zeiss MicroImaging, Inc.). For the quantification of the cells at different stages, three fields of each well and three wells of each condition were analyzed. […]

[3] = 10 nM, four days of treatment, microarray
[4] = 10 nM, one day of treatment, microarray

## CC(=O)NCCCCn1c2c(c3ccccc31)C(=O)NCC2 [4c, 2,3,4,5-tetrahydro-5-(4′-acetamidobutyl)-1H-pyrido-[4,3-b]indol-1-one]
[1]; [3]
  number of genes down-regulated: 536 genes
  number of genes up-regulated: 57 genes
[1]; [4]
  number of genes decreased more than 1.2 fold: 832 genes
  number of genes increased more than 1.2 fold: 169 genes
[1]; qRT-PCR, 4c-treated cells
  expression of Ctnnb1 and Lmnb1: reduced expression
[2]; 4-day treatment
  percentage of MBP+ cells: increased percentage of MBP+ cells
[2]; 4-day treatment, qRT-PCR
  transcript levels of late-differentiation marker MOG: increased transcript levels
[2]; two-day treatment
  NG2+ progenitors: concomitant decrease of NG2+ progenitors
  percentage of O4+ cells: increased percentage of O4+ cells
